Counter-ions that a name gives are not always drawn.
Key:
[1] = system: A2780 ovarian cancer cells; experiment: Alamar Blue cell proliferation assay, A2780; format: cell-based, human; conditions: Homo sapiens, 96 h, 4-day incubation, read-out: A2780 cell proliferation inhibition pIC50 (converted)
Method: Cellular activity of the compounds of formula (I) was determined on A2780 tumour cells using a colorimetric assay for cell toxicity or survival (see example C.2).
The human A2780 ovarian cancer cells were a kind gift from Dr. T. C. Hamilton (Fox Chase Cancer Centre, Pennsylvania, U.S.A.). The cells were cultured in RPMI 1640 medium supplemented with 2 mM L-Glutamine, 50 μg/ml gentamicin and 10% fetal calf serum.
(§1) Resazurin was purchased from Aldrich (Prod. No. 199303). Potassium ferrocyanide, potassium ferricyanide, KH2PO4 and K2HPO4 were purchased from Sigma (Prod. Nos. P9387, P8131, P5655 and P8281, respectively).
(§2) Potassium Phosphate Buffer 0.1 M (PPB) was made as follows: 2.72 gram KH2PO4 and 13.86 gram K2HPO4 were dissolved in 500 ml milli-Q H2O, the pH was adjusted to pH 7.4 and the volume was brought to 1 litre with milli-Q H2O; the buffer was filter sterilised and stored at room temperature. Resazurin stock solution (PPB-A) was prepared fresh by dissolving 45 mg resazurin in 15 ml PBS. 30 mM potassium ferricyanide (PPB-B) was prepared by dissolving 0.987 gram potassium ferricyanide in 100 ml PPB. 30 mM potassium ferrocyanide (PPB-C) was prepared by dissolving 1.266 gram potassium ferrocyanide in 100 ml PPB.
(§3) Mixture of PPB-A, PPB-B and PPB-C was prepared by mixing equal volumes of the respective solutions. Resazurin work solution (herein termed “Alamar Blue” solution) was prepared by diluting said mixture 20×(vol/vol) in PPB and filter sterilising; the Alamar Blue solution could be kept at 4° C. for a maximum of 2 weeks.
(§4) For experiments in 384 wells plates the cells were seeded at a density of 5×10^3 cells/ml in Falcon 384-well culture plates (Life Technologies, Merelbeke, Belgium), black with clear bottom, in 45 μl culture medium. Cells were allowed to adhere to plastic for 24 hr. The tested compound was pre-diluted (1/50 in culture medium) and 5 μl pre-diluted compound was added to the wells. Following 4-day incubation, 10 μl of the Alamar Blue solution was added to each well and the cells were further incubated for 5 hrs (A2780) or 6 hrs (U87MG) at 37° C. The fluorescence intensity was measured for each well with a Fluorescence plate reader (Fluorskan, Labsystems, 540 nm excitation and 590 nm emission)
(§5) The antiproliferative activity was calculated as percentage of remaining viable cells in treated versus control (untreated cells) conditions. Within an experiment, the result for each experimental condition is the mean of 3 replicate wells. When appropriate, the experiments were repeated to establish full concentration-response curves. When appropriate, IC50-values (concentration of the drug, needed to reduce cell growth to 50% of the control) were computed using probit analysis for graded data (Finney, D. J., Probit Analyses, 2nd Ed. Chapter 10, Graded Responses, Cambridge University Press, Cambridge 1962). Herein the effects of test compounds are expressed as pIC50 (the negative log value of the IC50-value) (see Table 4).

[2] = system: U87MG glioma cells; experiment: Alamar Blue cell proliferation assay, U87MG; format: cell-based, human; conditions: Homo sapiens, U-87 MG, 96 h, 4-day incubation, read-out: U87MG cell proliferation inhibition pIC50 (converted)
Method: The human U87MG glioma cells were cultured in DMEM medium supplemented with 2 mM L-Glutamine, 1 mM Sodium Pyruvate, 1.5 g/L Sodium Bicarbonate, 50 μg/ml gentamicin and 10% heat inactivated fetal calf serum. (U87MG cells are human glioblastoma cells with wild type p53. In this cell line MDM2 tightly controls p53 expression).
as §1, §2, §3, §4, §5

[3] = system: p53 in A2780 cells; experiment: p53 ELISA (preservation of p53 in A2780 cells); format: cell-based, human; conditions: Homo sapiens, lowest dose giving at least 140% of the p53 value in the control, 16 hours treatment, read-out: p53-elisa LAD
Method: The capacity of the compounds to preserve p53 in A2780 cells was measured with the p53 enzyme linked immunosorbent assay (ELISA). The p53 assay is a “sandwich” enzyme immunoassay employing two polyclonal antibodies. A polyclonal antibody, specific for the p53 protein, has been immobilized onto the surface of the plastic wells. Any p53 present in the sample to be assayed will bind to the capture antibody. The biotinylated detector polyclonal antibody also recognizes p53 protein, and will bind to any p53, which has been retained by the capture antibody. The detector antibody, in turn, is bound by horseradish peroxidase-conjugated streptavidin. The horseradish peroxidase catalyses the conversion of the chromogenic substrate o-phenylene diamine, the intensity of which is proportional to the amount of p53 protein bound to the plate. The coloured reaction product is quantified using a spectrophotometer. Quantitation is achieved by the construction of a standard curve using known concentrations of purified recombinant HIS tagged p53 protein (see example C.1).
A2780 cells (ATCC) were cultivated in RPMI 1640 supplemented with 10% fetal calf serum (FCS), 2 mM L-glutamine and gentamycin at 37° C. in a humidified incubator with 5% CO2.
A2780 cells were seeded at 20.000 cells per well in a 96 well plate, cultured for 24 hours and treated with compound for 16 hours at 37° C. in a humidified incubator. After incubation, the cells were washed once with phosphate-buffered saline and 30 μl, per well, low salt RIPA buffer (20 mM tris, pH7.0, 0.5 mM EDTA, 1% Nonidet P40, 0.5% DOC, 0.05% SDS, 1 mM PMSF, 1 μg/ml aprotinin and 0.5 μ/ml leupeptin) was added. Plates were placed on ice for 30 minutes to complete the lysis. p53 protein was detected in de lysates by using the sandwich ELISA, described below.
High binding polystyrene EIA/RIA 96 well plates (Costar 9018) were coated with the capture antibody pAb1801 (Abcam ab28-100) at a concentration of 1 μg/ml in coating buffer (0.1 M NaHCO3 pH8.2), 50 μl per well. The antibody was allowed to adhere overnight at 4° C. Coated plates were washed once with phosphate-buffered saline (PBS)/0.05% Tween 20 and 300 μl of blocking buffer (PBS, 1% bovine serum albumins (BSA)) was added, for an incubation period of 2 hours at room temperature. Dilutions of purified recombinant HIS tagged p53 protein, ranging from 3-200 ng/ml, were made in blocking buffer and used as standards.
Plates were washed twice with PBS/0.05% Tween 20 and blocking buffer or standards were added at 80 μl/well. To the standards, 20 μl of lysis buffer was added. The samples were added to the other wells at 20 μl lysate/well. After an overnight incubation at 4° C., plates were washed twice with PBS/0.05% Tween 20. Aliquots of 100 μl secondary polyclonal antibody p53(FL-393) (Tebubio, sc-6243) at a concentration of 1 μg/ml in blocking buffer were added to each well and allowed to adhere for 2 hours at room temperature. Plates were washed three times with PBS/0.05% Tween 20. Detection antibody anti-rabbit HRP (sc-2004, Tebubio) at 0.04 μg/ml in PBS/1% BSA was added and incubated for 1 hour at room temperature. Plates were washed three times with PBS/0.05% Tween 20 and 100 μl of substrate buffer was added (substrate buffer was prepared shortly before use by adding 1 tablet of 10 mg o-phenylene diamine (OPD) from Sigma and 125 μl 3% H2O2 to 25 ml OPD buffer: 35 mM citric acid, 66 mM Na2HPO4, pH5.6). After 5 to 10 minutes, colour reaction was stopped by adding 50 μl stop buffer (1 M H2SO4) per well. The absorbance at dual wavelengths of 490/655 nm was measured using a Biorad micro plate reader and the results were then analyzed.
For each experiment, controls (containing no drug) and a blank incubation (containing no cells or drugs) were run in parallel. The blank value was subtracted from all control and sample values. For each sample, the value of p53 (in absorbance units) was expressed as the percentage of the value for p53 present in the control. […]

| SMILES | melting point [°C] | IC50 [1] [µM] | IC50 [2] [µM] | minimal effective concentration [3] [µM] |
| --- | --- | --- | --- | --- |
| Fc1cc(Nc2ccncc2)cc(F)c1NCCc1c[nH]c2ccccc12 [Compound 11] | 164 | > 10 | 4.9 | > 10 |
| c1ccc2c(CCNc3ccc(Nc4ccncc4)c4ccccc34)c[nH]c2c1 [Compound 6] | 166 | > 10 | 1.58 | 1 |
| CC(=O)Nc1cc(NCCc2c[nH]c3ccccc23)c(F)cc1Nc1ccncc1 [Compound 50] | 241 | > 10 | > 10 | > 10 |
| COc1c(Nc2ccnc3c2CCC3O)ccc(NCCc2c[nH]c3c(OC)cccc23)c1F (centres unmarked) [Compound 49] | 123 | 0.501 | 0.646 | 1 |
| OCc1cc(Nc2cc(F)c(NCCc3c[nH]c4ccccc34)c(F)c2)ccn1 (as salt: hydrochloric acid salt) [Compound 14] | 110 | – | – | – |
| COc1ccc2c(CCNc3c(Cl)cc(Nc4ccnc5ccccc45)cc3Cl)c[nH]c2c1 [Compound 31] | 175 | ~2.57 | 1.32 | 1 |
| OCc1cc(NCCc2c[nH]c3ccccc23)c(Br)cc1Nc1ccnc2ccccc12 [Compound 53] | 192 | > 10 | 3.98 | > 10 |
| OC1CCc2c(Nc3cc(C(F)(F)F)c(NCCc4c[nH]c5ccccc45)c(C(F)(F)F)c3)ccnc21 (centres unmarked) [Compound 5] | 178 | > 10 | > 10 | 0.3 |
| OC1CCc2c(Nc3cc(F)c(NCCc4c[nH]c5ccccc45)c(F)c3)ccnc21 (centres unmarked) [Compound 17] | 147 | 8.32 | 6.92 | 1 |
| Cc1[nH]c2ccccc2c1CCNc1c(Cl)cc(Nc2ccnc(CO)c2)cc1Cl [Compound 25] | 186 | > 10 | > 10 | 3 |
| Cc1c(NCCc2c[nH]c3ccccc23)ccc(Nc2ccnc(CO)c2)c1C [Compound 2] | 163 | > 10 | 7.76 | 3 |
| Cl.N#Cc1c(NCCc2c[nH]c3ccccc23)ccc(Nc2ccncc2)c1N1CCOCC1 [Compound 55] | 245 | > 10 | > 10 | > 10 |
| Cc1cc(Nc2ccnc3c2CCC3O)c(Cl)cc1NCCc1c[nH]c2c(C)cccc12 (centres unmarked) [Compound 10] | 237 | 3.55 | 2.82 | 1 |
| Cc1cc(Nc2ccnc3c2CCC3O)c(Cl)cc1NCCc1c[nH]c2ccccc12 (centres unmarked) [Compound 9] | 207 | 4.17 | > 10 | > 10 |
| C=C(C)c1cccc2c(CCNc3ccc(Nc4ccnc5c4CCC5O)c(OC)c3F)c[nH]c12 (centres unmarked) [Compound 64] | – | 0.0851 | 0.339 | 0.3 |
| FC(F)(F)c1cc(Nc2ccncc2)cc(C(F)(F)F)c1NCCc1c[nH]c2ccccc12 [Compound 3] | 187 | > 10 | > 10 | > 10 |
| OCc1cc(Nc2cc(Cl)c(NCCc3c[nH]c4ccccc34)c(Cl)c2)ccn1 [Compound 24] | 115 | > 10 | > 10 | > 10 |
| Cc1c(NCCc2c[nH]c3ccccc23)ccc(Nc2ccncc2)c1C [Compound 1] | 186 | > 10 | > 10 | > 10 |
